Measurements from patent US6689758B1, “Gene therapy method” (SmithKline Beecham Corporation, priority 1998, dated 2004).

How the values were obtained:
rat excisional wounds = assay: Rat excisional wound healing model after particle mediated gene transfer; type: in vivo, Sprague Dawley rats
Experimental: Eighteen male Sprague Dawley rats weighing 250g were anaesthetised under isoflorane in a 2:1 mixture of oxygen/nitrous oxide. Two sites of transfection (8 cm from the skull, 1.5 cm either side of the spine) on the rat dorsum were prepared by firstly clipping the pelt then shaving with a razor. Two transfections were carried out per wound site, 8 mm apart, by accelerating plasmid/gold complexes of either Egr-1 or β-galactosidase into the skin at 350 psi. Total amount of DNA was not less than 1.7 μg per transfection (equalling 3.4 μg per wound). […]
Wound area was determined using image analysis and the healing expressed as a increase in percent of original wound area. Statistical significances of differences between treated and control groups were evaluated using a […] Mann-Whitney test.
Each wound per time point after dissection was bisected horizontally. […] Using this histological stain, key markers of wound healing was assessed including re-epithelialisation and collagen content and comparisons made between treated and control sections.
Immunocytochemistry and image analysis was performed in order to quantify the differences seen using routine histology. […] Area and intensity of staining was measured using image analysis and plotted as a graph. Statistical significant differences between treated and control groups were evaluated using a Man-Whitney nonparametric test.

[1] = tested on: human cell co-culture system; assay: In vitro angiogenesis co-culture system (tubule formation, PECAM-1 staining); type: cell-based; conditions: 20 μM, negative control; 11 days co-culture
Experimental: Egr-1 under the control of the hCMV promoter (Houston et al, Arterioscler. Thromb. Vasc. Biol., 19; 281-289, 1999) was transfected into a human cell co-culture system designed to measure angiogenesis in vitro. The angiogenesis kit (TCS Biologicals) was used as described according to the manufacturer's instructions using VEGF protein (2 ng/ml) and suramin (20 μM) as positive and negative controls respectively for angiogenesis.
Optimisation of transfection in the co-culture system was performed using pGL3 control luciferase (Promega) with 1.0 μg and 0.5 μg CMV-β, gal as a normalising plasmid for transfection control. Two ratios of lipid: DNA (v/w) were used; 2:1 and 4:1 (FIG. 3a.). CMV Egr-1 DNA was transfected at 0.5, 1.0, 1.5 and 2.5 μg per well in triplicate in a 24 well microtitre plate using Mirus Transit reagent (Cambridge Biosciences) at a ratio of 2:1 v/w DNA. VEGF protein positive control and suramin negative control was added to triplicate wells. After 11 days co-culture angiogenesis was determined by staining of cells for the endothelial cell marker PECAM-1 and visualisation using BCIP/NBT substrate.
Representative images of tubule formation using all four doses of Egr-1 expression plasmid together with VEGF (positive control) and suramin (negative control) were captured and processed by image analysis using Quantimet 600 image analyser and associated software. […]

HeLa cells = assay: Transient transfection of reporter plasmid pSVSRE5 with pFA-MEK1 into HeLa cells; type: cell-based; conditions: co-transfected pFA-MEK1 vs pFA-dbd
Excerpt: We have concentrated on SRE5. The novel SRE 5 with its associated Ets transcription factor binding sites was synthesised as a double stranded oligonucleotide and inserted into the Nhe I site upstream of a SV40 minimal promoter vector (pSV40). SRE5 (SEQ ID NOS:7-8) has the sequence: […]
The resulting reporter plasmid pSVSRE5 was transiently transfected into HeLa cells together with plasmids pFA-dbd (construct encoding the Gal4 DNA binding domain (dbd) ) or pFA-MEK1 (construct encoding a fusion protein of the Gal4 DNA binding domain (dbd) and the kinase domain of the MAP kinase kinase MEK1). The Gal4-MEK1 fusion protein is constitutively active and phosphorylates Elk1 and SRF, bound to SRE5.

β-galactosidase
collagen I immunostaining (image analysis) (rat excisional wounds; 2 days post wounding, β-galactosidase compared to Egr-1): significantly more collagen | wounds with complete re-epithelialisation (rat excisional wounds; 6 days post wounding): 0%

Cc1ccc(C(=O)Nc2ccc(S(=O)(=O)O)c3cc(S(=O)(=O)O)cc(S(=O)(=O)O)c23)cc1NC(=O)c1cccc(NC(=O)Nc2cccc(C(=O)Nc3cc(C(=O)Nc4ccc(S(=O)(=O)O)c5cc(S(=O)(=O)O)cc(S(=O)(=O)O)c45)ccc3C)c2)c1 [suramin]
tubule formation [1]: Decreased tubule formation

B1: SRE5: novel SRE 5 with associated Ets sites, double stranded oligonucleotide inserted upstream of SV40 minimal promoter (reporter plasmid pSVSRE5) (nucleic acid)
chain 1: AGGCTGCGACCCGGAAATGCCATATAAGAAGCAGGAAGGATCCCCCCGCCGG
chain 2: AGCCGGCGGGGGGATCCTTCCTGCTTCTTATATGGCATTTCCGGGTCGCAGC
modifications: double-stranded insert cloned upstream of SV40 minimal promoter in reporter plasmid, further chemistry not given here
activation by the presence of MEK1 (reporter) (HeLa cells): 3 fold
